The results in this text go back to US20250282779A1, “SUBSTITUTED 5,6,7,8-TETRAHYDROPYRIDO[2,3-D]PYRIMIDINE-2,4-DIONES FOR TREATING CARDIAC DISEASES” (MYOKARDIA, INC., priority 2018, published 2025).

The nature of this series: physchem. As to conditions: pH 7.4, aqueous buffer, kinetic from dmso stock. On the procedure: After shaking at room temperature for 1.5 h, the mixture was filtered under vacuum through a 96-well filter plate, which was pre-washed with 100 μL of 70% ethanol per well. Subsequently, 70 μL of the filtrate was added into a well in a 96-well reading plate, which was pre-loaded with 70 μL of DMSO per well. The concentration of the sample in a well was determined on the basis of the intergration on LC with UV detection as compared to the standard curve of each compound established in DMSO.

`COC(=O)[C@H]1[C@H]2C[C@@H]3c4[nH]c5cc(OC)ccc5c4CCN3C[C@H]2C[C@@H](OC(=O)c2cc(OC)c(OC)c(OC)c2)[C@@H]1OC` [Reserpine]: the solubility (kinetic) (commonly the concentration staying in solution when a stock, usually in DMSO, is diluted into the medium) at 1.5 h was below 15 µM.
